Results from patent US20210230616A1, “METHODS FOR ISOLATING CELLS WITHOUT THE USE OF TRANSGENIC MARKER SEQUENCES” (INSTITUTE OF GENETICS AND DEVELOPMENTAL BIOLOGY, CHINESE …, priority 2017, published 2021).

Assays:
Format in all cases: in vivo
[1] = test system: wild-type plants; test: Nicosulfuron selection medium, wild-type rice plants; details: 0.0065 PPM Nicosulfuron
Description: The pH-nCas9-PBE-OsALS-S1/S2 binary vector was transformed into Agrobacterium strain AGL1 by electroporation. Agrobacterium-mediated transformation, tissue culture and regeneration in rice cultivar Zhonghua 11 were performed according to Shan et al. (Shan, Q. et al. Targeted genome modification of crop plants using a CRISPR-Cas system. Nat. Biotechnol. 31, 686-688 (2013)). Hygromycin selection (50 μg/ml) was used during tissue culture. (This experiment is a proof of concept, so the plants were selected with hygromycin first, then by nicosulfuron. The objective was to first obtain transgenic plants and then screen for herbicide resistance). […] Four seedlings survived after 14 days. DNA was extracted from the four seedlings. The ALS gene was amplified by PCR, sequenced to determine the mutant genotype.

[2] = test system: wild-type plants; test: Nicosulfuron selection medium, wild-type wheat plants
Excerpt: 30 days later, twelve seedlings survived, and 9 of them had base mutations at the TaALS-S2 site. The efficiency of selecting the ALS-S2 site mutant plants using nicosulfuron selection medium was 75% (9/12).

[3] = test system: mutant plant with heterozygous P165L substitution on ZmALS2; test: Herbicide resistance of ZmALS-P165 edited corn plant
Excerpt: To establish the co-editing system in corn, acetolactate synthase site corresponding TaALS-P173 was targeted to test the herbicide resistance. It has been reported single edited allele on ZmALS2 could confer plants herbicide resistance (Svitashev et al, 2016). So the binary vector targeting ZmALS-P165 was transformed to immature embryos (ZmALS-P165 site is conserved in both ZmALS1 and ZmALS2). Three independent mutants were obtained from the regenerated plants and their genotypes are same.

| SMILES | survival of wild-type plants on selection medium [1] | survival of wild-type plants on selection medium [2] | resistance of mutant corn plant to the herbicide [3] |
| --- | --- | --- | --- |
| COc1cc(OC)nc(NC(=O)NS(=O)(=O)c2ncccc2C(=O)N(C)C)n1 [Nicosulfuron] | cannot survive | unable to survive |  |
| COC(=O)c1ccc(CNS(C)(=O)=O)cc1S(=O)(=O)NC(=O)Nc1nc(OC)cc(OC)n1 [Mesosulfuron-methyl] |  |  | showed resistance |
